Assay results taken from patent EP0582261A1, “Cephalosporin compounds and processes for the preparation thereof” (LUCKY LTD., priority 1992, dated 1994).

Tests used:
Test in all cases: MIC, two-fold dilution method on Müller-Hinton agar
Assay type in all cases: cell-based
Settings in all cases: incubated at 37°C for 20 hours
[1] = tested on: Acinetobacter calcoaceticus ATCC 15473
Description: (§1) The same procedures as described in Example 163 were repeated using 7-amino-1,8-dimethyl[1,3]imidazo[1,2-c] pyrimidine-5-thione prepared in Preparation Example 36 in place of 7-amino-1-methyl[1,3]imidazo[1,2-c]pyrimidine-5-thione to yield 190mg and 180mg of the title compound(a) and (b), respectively, as white solids.
(§2) These MIC values were taken by employing a two-fold dilution method: that is, two-fold serial dilutions of each of the test compounds were made and dispersed in a Müller-Hinton agar medium; 2µl of the standard test strain which had the 10⁷ CFU(Colony Forming Unit) per ml was inoculated on the medium; and these were incubated at 37°C for 20 hours.

[2] = tested on: Bacillus cereus ATCC 11778
Description: as §1, §2

[3] = tested on: Bacillus megaterium ATCC 9885
Description: as §1, §2

[4] = tested on: Citrobacter freundii ATCC 8090
Description: as §1, §2

[5] = tested on: Enterobacter aerogenes ATCC 29751
Description: as §1, §2

[6] = tested on: Enterobacter cloacae ATCC 27508
Description: as §1, §2

[7] = tested on: Escherichia coli ATCC 10536
Description: as §1, §2

[8] = tested on: Escherichia coli ATCC 25922
Description: as §1, §2

[9] = tested on: Klebsiella pneumoniae ATCC 10031
Description: as §1, §2

[10] = tested on: Micrococcus luteus ATCC 9341
Description: as §1, §2

[11] = tested on: Morganella morganii ATCC 8076h
Description: as §1, §2

[12] = tested on: Proteus mirabilis ATCC 25933
Description: as §1, §2

[13] = tested on: Proteus vulgaris ATCC 6059
Description: as §1, §2

[14] = tested on: Providencia rettgeri ATCC 9250
Description: as §1, §2

[15] = tested on: Pseudomonas aeruginosa ATCC 10145
Description: as §1, §2

[16] = tested on: Pseudomonas aeruginosa ATCC 25619
Description: as §1, §2

[17] = tested on: Pseudomonas aeruginosa ATCC 27853
Description: as §1, §2

[18] = tested on: Salmonella typhimurium ATCC 14028
Description: as §1, §2

[19] = tested on: Serratia marcescens ATCC 27117
Description: as §1, §2

[20] = tested on: Shigella flexneri ATCC 11836
Description: as §1, §2

[21] = tested on: Shigella sonnei ATCC 11060
Description: as §1, §2

[22] = tested on: Staphylococcus aureus ATCC 10537
Description: as §1, §2

[23] = tested on: Staphylococcus aureus ATCC 6538p
Description: as §1, §2

[24] = tested on: Staphylococcus epidermidis ATCC 12228
Description: as §1, §2

[25] = tested on: Streptococcus faecalis ATCC 29212
Description: as §1, §2

Substance	MIC values against the standard strains [1]	MIC values against the standard strains [2]	MIC values against the standard strains [3]	MIC values against the standard strains [4]	MIC values against the standard strains [5]	MIC values against the standard strains [6]	MIC values against the standard strains [7]	MIC values against the standard strains [8]	MIC values against the standard strains [9]	MIC values against the standard strains [10]	MIC values against the standard strains [11]	MIC values against the standard strains [12]	MIC values against the standard strains [13]	MIC values against the standard strains [14]	MIC values against the standard strains [15]	MIC values against the standard strains [16]	MIC values against the standard strains [17]	MIC values against the standard strains [18]	MIC values against the standard strains [19]	MIC values against the standard strains [20]	further results
7-[(Z)-2-(2-aminothiazol-4-yl)-2-(methoxy-imino)acetamido]-3-(7-amino-1-methyl[1,2,4]triazolo[1,5-c]pyrimidinium-5-yl)thiomethyl-3-cephem-4-carboxylate [Exp. 46]	2 µg/mL	8 µg/mL	0.063 µg/mL	0.031 µg/mL	0.13 µg/mL	≤0.008 µg/mL	0.031 µg/mL	0.031 µg/mL	≤0.008 µg/mL	0.016 µg/mL	≤0.008 µg/mL	0.13 µg/mL	0.063 µg/mL	≤0.008 µg/mL	4 µg/mL	2 µg/mL	2 µg/mL	0.063 µg/mL	0.13 µg/mL	0.016 µg/mL	MIC values against the standard strains [21]: 0.063 µg/mL; MIC values against the standard strains [22]: 0.063 µg/mL; MIC values against the standard strains [23]: 0.13 µg/mL; MIC values against the standard strains [24]: 0.063 µg/mL; MIC values against the standard strains [25]: 16 µg/mL
7-[(Z)-2-(2-aminothiazol-4-yl)-2-((R)-1-carboxyprop-1-oxyimino)acetamido]-3-(7-amino-1-methyl [1,2,4]triazolo[1,5-c]pyrimidinium-5-yl)thiomethyl-3-cephem-4-carboxylate [Exp. 86]	2 µg/mL	16 µg/mL	0.031 µg/mL	0.13 µg/mL	0.25 µg/mL	≤0.008 µg/mL	0.13 µg/mL	0.063 µg/mL	≤0.008 µg/mL	≤0.008 µg/mL	≤0.008 µg/mL	0.13 µg/mL	0.13 µg/mL	≤0.008 µg/mL	2 µg/mL	1 µg/mL	1 µg/mL	0.25 µg/mL	0.25 µg/mL	0.031 µg/mL	MIC values against the standard strains [21]: 0.063 µg/mL; MIC values against the standard strains [22]: 0.13 µg/mL; MIC values against the standard strains [23]: 0.13 µg/mL; MIC values against the standard strains [24]: 0.25 µg/mL; MIC values against the standard strains [25]: 16 µg/mL
7-[(Z)-2-(2-aminothiazol-4-yl)-2-((R)-1-carboxyprop-1-oxyimino)acetamido]-3-(2,7-diamino-1-methyl[1,2,4]triazolo[1,5-c]pyrimidinium-5-yl)thiomethyl-3-cephem-4-carboxylate [Exp. 88]	1 µg/mL	8 µg/mL	0.031 µg/mL	0.13 µg/mL	0.13 µg/mL	≤0.008 µg/mL	0.13 µg/mL	0.063 µg/mL	≤0.008 µg/mL	≤0.008 µg/mL	≤0.008 µg/mL	0.13 µg/mL	0.063 µg/mL	≤0.008 µg/mL	1 µg/mL	0.5 µg/mL	1 µg/mL	0.13 µg/mL	0.25 µg/mL	0.031 µg/mL	MIC values against the standard strains [21]: 0.063 µg/mL; MIC values against the standard strains [22]: 0.13 µg/mL; MIC values against the standard strains [23]: 0.13 µg/mL; MIC values against the standard strains [24]: 0.031 µg/mL; MIC values against the standard strains [25]: 8 µg/mL
7-[(Z)-2-(5-amino-1,2,4-thiadiazol-3-yl)-2-(ethoxyimino)acetamido]-3-(7-amino-1-methyl[1,2,4] triazolo[1,5-c]pyrimidinium-5-yl)thiomethyl-3-cephem-4-carboxylate [Exp. 72]	1 µg/mL	16 µg/mL	0.063 µg/mL	0.063 µg/mL	0.25 µg/mL	≤0.008 µg/mL	0.063 µg/mL	0.063 µg/mL	0.016 µg/mL	0.016 µg/mL	≤0.008 µg/mL	0.25 µg/mL	0.5 µg/mL	≤0.008 µg/mL	4 µg/mL	1 µg/mL	4 µg/mL	0.25 µg/mL	0.25 µg/mL	0.031 µg/mL	MIC values against the standard strains [21]: 0.063 µg/mL; MIC values against the standard strains [22]: 0.13 µg/mL; MIC values against the standard strains [23]: 0.25 µg/mL; MIC values against the standard strains [24]: 0.25 µg/mL; MIC values against the standard strains [25]: 8 µg/mL
